Read-outs that look alike come from different tables or passages of the source.

One data set has as its target BRD4 BD1 (Homo sapiens (Human), UniProt O60885). As to the kind of experiment: NanoBRET bromodomain assay, NanoLuc-BRD4-BD1 fusion in HEK293 cells. It counts as cell-based. As to conditions: top concentration 10 μM. On the technique in general: Bioluminescence resonance energy transfer reports proximity on the nanometre scale.
A short description of data set [1]: Intrinsic clearance in liver microsomes, rat. As to conditions: rat, liver microsomes, pH 7.4, rat liver microsomes, read-out: Half-Life (T1/2) (min), Rat. Format: in vitro ADME. As for the experimental part: From stock solution of compound on 10 mM DMSO, a working solution of 0.1 mM is prepared by diluting the compound in DMSO. 6.25 μL of a 20 mg/mL solution of microsomes in PBS pH 7.4 buffer is added to 216.25 μL PBS pH 7.4 buffer (final microsome concentration—0.5 mg/mL). 25 μL of 10 mM solution of NADPH in PBS pH 7.4 buffer is added to the incubations (final NADPH concentration—1 mM). The mixture is pre-warmed to 37° C. for 10 minutes. 2.5 μL of test compound working solution is added (final compound concentration—1 μM with 1% DMSO). Aliquots of 30 μL are taken from the reaction solution at 0.5, 5, 15, 30 and 60 minutes. The reaction was stopped by the addition of 5 volumes of cold acetonitrile with IS (100 nM alprazolam, 200 nM caffeine and 100 nM tolbutamide). Samples were centrifuged at 3, 220 g for 40 minutes. Aliquots of 100 μL of the supernatant are mixed with 100 μL of ultra-pure H2O and used for LC-MS/MS analysis. The percent compound remaining at each time point is calculated with respect to that of the 0.5 min sample. The data are analysed to calculate half-life. Control experiments are run without NADPH and blank samples are prepared using DMSO without the test compound.
A 50 mM stock solution (in DMSO) is prepared for the compound. From the stock solution, a working solution of 0.5 mM is prepared by diluting the compound in DMSO. This concentration of working solution is prepared considering a final concentration of 1 uM with 0.1% DMSO. The compound (1 μL of working solution) is spiked in PBS with pH 7.4 ([…]) at a concentration of 1 μM. Subsequently, 110 μL of 10 mM NADPH is added (as a co-factor). The sample is incubated at 37° C. for 15 min. Following this, pre-warmed liver microsomes (27.5 μL; final protein conc. 0.5 mg/mL) are added. The samples are then incubated at 37° C. Aliquots of samples are withdrawn at 0, 5, 15, 30, 45 and 60 min. The reaction is stopped by using chilled acetonitrile containing internal standard. The samples are centrifuged, and the supernatants analysed by LC-MS/MS. The percent compound remaining at each time point is calculated with respect to that of the 0 min sample. The data are then analysed to calculate half-life and intrinsic clearance (CLint). Control experiments are run without NADPH and blank samples are prepared using DMSO without the test compound.
Background: Liver microsomes are a subcellular fraction often used to study metabolism.

For the next data set, the target named is BRD4 BD2 (Homo sapiens (Human), UniProt O60885). As to the kind of experiment: NanoBRET bromodomain assay, NanoLuc-BRD4-BD2 fusion in HEK293 cells.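 For all read-outs here: tracer displacement BRET read in transfected cells after 2 h compound exposure at 37 °C, signal in milliBRET units corrected against no-tracer background wells.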 As to conditions: for IC50: NanoBRET, HEK293 cells, top concentration 10 μM; for Fold selectivity: IC50 for BRD4 BD1 divided by IC50 for BRD4 BD2, qualitative if an IC50 is at the upper limit.
Data set [2] in a line: Sprague-Dawley rat pharmacokinetics, IV and PO cassette dosing. It counts as in vivo. Conditions: Method 1; for IV T1/2: IV 1 mg/kg; for PO F: PO 5 mg/kg. As for the experimental part: Compounds were formulated in 5% DMSO, 40% PEG-400, 55% Milli-Q water at a concentration of 0.2 mg/mL for IV and at 0.5 mg/mL for PO. Two male Sprague-Dawley rats per arm were dosed with up to 5 compounds in cassette mode, which each compound being dosed at 1 mg/kg IV and 5 mg/kg PO. Blood was sampled at various timepoints and plasma isolated. 50 μL of plasma with 5 μL of blank Sprague-Dawley rat plasma were added to 200 μL of acetonitrile containing IS mixture. The samples were vortexed for 30 s. After centrifugation at 4 degrees Celsius, 3900 rpm for 15 min, the supernatant was diluted 3 times with water. 20 μL of diluted supernatant was injected into the LC/MS/MS system for quantitative analysis and concentration of analyte determined by comparison with matrix matched standard curve. WinNonlin (Phoenix™, version 8.3) or other similar software may be used for pharmacokinetic calculations.

Data set [3] can be described thus: Plasma stability assay, rat plasma. Conditions: Method 2 (10 μM). It counts as in vitro ADME. As for the experimental part:
From stock solution of compound in 10 mM DMSO, a working solution of 1 mM is prepared by diluting the compound in DMSO. To 398 μL of plasma pre-warmed at 37° C. for 15 minutes), 2 μL of working solution of compound is added, resulting in a final concentration of 5 μM (0.5% DMSO) for the compound. The sample is then incubated at 37° C. Aliquot is withdrawn at specified time-points (0, 15, 30, 60 and 120 mins). The reaction is stopped by addition of 450 μL cold acetonitrile containing internal standard (IS). […] Aliquots of the supernatant is analysed using LC-MS/MS. The percent remaining of the compound at each time point is calculated with respect to the control sample (0 min time-point).
A working solution of compound (500 μM) is prepared in DMSO (100%). To 735 μL of plasma, 15 μL of working solution of compound is added—resulting in a final concentration of 10 μM (2% DMSO) for the compound. The sample is then incubated at 37° C. Aliquot is withdrawn at time-points—0, 15, 30, 60, 90 and 120 mins. The reaction is stopped by using chilled acetonitrile containing internal standard (IS). The samples are centrifuged and the supernatants analyzed using LC-MS/MS. The percent remaining of the compound at each time point is calculated with respect to the control sample (0 min time-point).

Procedure for BRD4 BD1: HEK293 cells were transfected using NanoLuc-BRD4-BD1 or NanoLuc-BRD4-BD2 fusion vectors and incubated at 37° C. in an atmosphere of 5% CO2 for 20-24 hours. The transfected cells were then dispensed into 96-well plates using 90 μl cell suspension per well containing 2×10^5 cells/mL in Opti-MEM and 1× final concentration of tracer. 90 μL per well of cell suspension without tracer was also dispensed into at least 3 wells as “No tracer control samples” for background correction. Serially diluted test compounds were prepared at 1000× concentration in DMSO and further diluted to 10× concentration in Opti-MEM. […] Plates were then incubated at 37° C. +5% 002 incubator for 2 hours. […] Donor emission (450 nm) and acceptor emission (610 nm) were measured using PHERAstar (BMG LabTech). For data analysis, the raw BRET ratio was generated and converted to milliBRET units with background correction using the formula: [(Acceptorsample/Donorsample−(Acceptorno tracer control/Donorno tracer control)]×1000. The mBU data was plotted as a function of compound concentration and IC50s for BRET assay were determined by nonlinear regression analysis of concentration response curves using the Collaborative Drug Discovery Vault software. The fold-selectivity was calculated by dividing the IC50 for BRD4 BD1 by the IC50 for BRD4 BD2.

In the case of `CCNC(=O)c1cc(OC(C)c2ccccc2)c(C(=O)NC)[nH]1` (racemic) [Example 95, N^5-ethyl-N^2-methyl-3-(1-phenylethoxy)-1H-pyrrole-2,5-dicarboxamide], the IC50 (as a rule, the point on the concentration scale where inhibition reaches its midpoint) was at least 10 µM against BRD4 BD1 and 200 to 1000 nM on BRD4 BD2 (BRD4 BD2 (IC50)). Moreover, the half-life at 1 μM in data set [1] (Method 1) was above 60 min. Also, the Fold selectivity result at BRD4 BD2 was “X (Fold >2 and ≤50)”.
With `CCNC(=O)c1cc(OC(C)c2ccc(Cl)cc2)c(C(=O)NC)[nH]1` (single isomer, unassigned) [Example 18, 3-(1-(4-chlorophenyl)ethoxy)-N^5-ethyl-N^2-methyl-1H-pyrrole-2,5-dicarboxamide], the IC50 against BRD4 BD1 was at least 10 µM; on BRD4 BD2 (BRD4 BD2 (IC50)), below 50 nM. Also, the “IV T1/2” value in data set [2] amounted to 66 min. For the same compound, in data set [2], the “PO F” value was 30%. For the same compound, the Fold selectivity result at BRD4 BD2 is given as “XXX (Fold >200)”.
Regarding `CCNC(=O)c1cc(OC(C)c2ccccc2F)c(C(=O)NC)[nH]1` (single isomer, unassigned) [Example 20, N^5-ethyl-3-(1-(2-fluorophenyl)ethoxy)-N^2-methyl-1H-pyrrole-2,5-dicarboxamide], the IC50 on BRD4 BD1 is at least 10 µM. In data set [2], the “IV T1/2” value came out at 24 min and the “PO F” value was found to be 46%. This compound came in with an IC50 at BRD4 BD2 (BRD4 BD2 (IC50)) of 50 to 200 nM. On BRD4 BD2, the Fold selectivity result is “XX (Fold >50 and ≤200)”.
As for `CNC(=O)c1[nH]c(C(=O)NC2CCC(O)CC2)cc1OC(C)c1ccc(Cl)cc1` (single isomer, unassigned) [Example 29, 3-(1-(4-chlorophenyl)ethoxy)-N^5-(4-hydroxycyclohexyl)-N^2-methyl-1H-pyrrole-2,5-dicarboxamide], the “Plasma Stability (% remaining at 120 minutes), Rat” value in data set [3] was determined as 89%. The half-life at 1 μM in data set [1] (Method 1) is above 60 min. Besides, the Fold selectivity entry on BRD4 BD2 was “XX (Fold >50 and ≤200)”.
The compound `CNC(=O)c1[nH]c(C(=O)N[C@H]2CC[C@H](O)CC2)cc1OC(C)c1ccc(Cl)cc1F` (single isomer, unassigned) [Example 38, 3-(1-(4-chloro-2-fluorophenyl)ethoxy)-N^5-(trans-4-hydroxycyclohexyl)-N^2-methyl-1H-pyrrole-2,5-dicarboxamide] showed an IC50 against BRD4 BD1 of at least 10 µM. Also, in data set [1] (Method 1), the half-life at 1 μM is above 60 min. Also, in data set [2], the “IV T1/2” value amounted to 84 min and the “PO F” value came to 66%. On BRD4 BD2 (BRD4 BD2 (IC50)), the concentration for half-maximal inhibition (IC50) was in the range of 50 to 200 nM. Besides, the Fold selectivity entry on BRD4 BD2 is “XX (Fold >50 and ≤200)”.
`CCNC(=O)c1cc(OC(C)c2ccc(Cl)cc2F)c(C(=O)NC)[nH]1` (single isomer, unassigned) [Example 41, 3-(1-(4-chloro-2-fluorophenyl)ethoxy)-N^5-ethyl-N^2-methyl-1H-pyrrole-2,5-dicarboxamide] returned a half-inhibitory concentration (IC50) at BRD4 BD1 of at least 10 µM. Besides, the half-life at 1 μM in data set [1] (Method 1) is above 60 min. In data set [2], the “IV T1/2” value turned out to be 18 min and the “PO F” value turned out to be 69%. The compound also had an IC50 against BRD4 BD2 (BRD4 BD2 (IC50)) of 200 to 1000 nM. Besides, the Fold selectivity entry at BRD4 BD2 is “X (Fold >2 and ≤50)”.
For `CNC(=O)c1[nH]c(C(=O)NC2CCC2)cc1OC(C)c1ccccc1F` (single isomer, unassigned) [Example 43, N^5-cyclobutyl-3-(1-(2-fluorophenyl)ethoxy)-N^2-methyl-1H-pyrrole-2,5-dicarboxamide], the IC50 against BRD4 BD1 was at least 10 µM; against BRD4 BD2 (BRD4 BD2 (IC50)), 50 to 200 nM. The “Plasma Stability (% remaining at 120 minutes), Rat” value in data set [3] is on record as 20%. Further, the “IV T1/2” value in data set [2] was determined as 30 min. In addition, the “PO F” value in data set [2] worked out at 58%. Besides, the Fold selectivity result on BRD4 BD2 is “XX (Fold >50 and ≤200)”.
As for `CNC(=O)c1[nH]c(C(=O)N[C@H]2CC[C@H](O)CC2)cc1OC(C)c1ccccc1F` (single isomer, unassigned) [Example 45], the “Plasma Stability (% remaining at 120 minutes), Rat” value in data set [3] is listed as 88%. The half-life at 1 μM in data set [1] (Method 2) was above 60 min. The Fold selectivity entry on BRD4 BD2 is “XX (Fold >50 and ≤200)”.
Turning to `CCNC(=O)c1cc(OC(C)c2c(F)cccc2F)c(C(=O)NC)[nH]1` (single isomer, unassigned) [Example 55, 3-(1-(2,6-difluorophenyl)ethoxy)-N^5-ethyl-N^2-methyl-1H-pyrrole-2,5-dicarboxamide], the “Plasma Stability (% remaining at 120 minutes), Rat” value in data set [3] was 88%. Besides, the half-life at 1 μM in data set [1] (Method 2) is above 60 min. Moreover, the Fold selectivity result on BRD4 BD2 is “— (Fold ≥0 and ≤2)”.
As for `CNC(=O)c1[nH]c(C(=O)N[C@H](C)C(F)(F)F)cc1O[C@@H](C)c1ccccc1` [Example 119, N^2-methyl-3-((S)-1-phenylethoxy)-N^5-((R)-1,1,1-trifluoropropan-2-yl)-1H-pyrrole-2,5-dicarboxamide], the values for the IC50 on BRD4 BD1 and against BRD4 BD2 (BRD4 BD2 (IC50)) were at least 10 µM and above 10000 nM, respectively. Further, the Fold selectivity entry on BRD4 BD2 was “— (Fold ≥0 and ≤2)”.
In the case of `CNC(=O)c1[nH]c(C(=O)N[C@@H](C)C(F)(F)F)cc1O[C@@H](C)c1ccccc1` [Example 120, N^2-methyl-3-((S)-1-phenylethoxy)-N^5-((S)-1,1,1-trifluoropropan-2-yl)-1H-pyrrole-2,5-dicarboxamide], the results for the IC50 against BRD4 BD1 and against BRD4 BD2 (BRD4 BD2 (IC50)) were at least 10 µM and above 10000 nM, respectively. Besides, the Fold selectivity result at BRD4 BD2 is “— (Fold ≥0 and ≤2)”.
In the case of `CNC(=O)c1[nH]c(C(=O)NC(C)(C)C)cc1O[C@@H](C)c1ccccc1` [Example 121], the IC50 against BRD4 BD1 was at least 10 µM; on BRD4 BD2 (BRD4 BD2 (IC50)) it was 200 to 1000 nM. In addition, the Fold selectivity entry on BRD4 BD2 was “X (Fold >2 and ≤50)”.
Regarding `CNC(=O)c1[nH]c(NC(C)=O)cc1O[C@@H](C)c1ccccc1F` [Example 128, (S)-5-acetamido-3-(1-(2-fluorophenyl)ethoxy)-N-methyl-1H-pyrrole-2-carboxamide], the values for the IC50 at BRD4 BD1 and on BRD4 BD2 (BRD4 BD2 (IC50)) were at least 10 µM and 50 to 200 nM, respectively. Also, the Fold selectivity result at BRD4 BD2 was “XX (Fold >50 and ≤200)”.
In the case of “(S)—N^2-ethyl-4-(1-(2-fluorophenyl) ethyl)-N^5,3-dimethyl-1H-pyrrole-2,5-dicarboxamide [Example 74]”, the figures for the 50% inhibitory concentration (IC50) on BRD4 BD1 and on BRD4 BD2 (read-out: BRD4 BD2 (IC50)) were at least 10 µM and 1000 to 10000 nM, respectively. In addition, the Fold selectivity entry at BRD4 BD2 is “X (Fold >2 and ≤50)”.

Values taken from patent US20250263370A1 (Tay Therapeutics Limited, priority 2022, published 2025).
